Read-outs that look alike come from different tables or passages of the source.
Legend:
Assay type in all cases: cell-based
[1] = tested on: Influenza virus B
[2] = tested on: Influenza virus A
[3] = tested on: Chlamydia trachomatis D323; experiment: Protection of cell culture from Chlamydia trachomatis (immunofluorescence, cytoplasmatic inclusions)
Source text: The antiviral activity of the claimed compounds were also all tested against the Chlemydia trachomatis. The effects of the claimed compounds on the Chlamydia trachomatis are charted in TABLE 4. A relative strain of Chlamydia trachomatis D323 was used to test the claimed compounds. The strain, derived from a patient with Chlamydia urethritis, comprised a morphology and a physiological activity characteristic of and representative of that type. An infection dose of Chlamydia having a concentration of 1/10^6 cells/ml was introduced into a cell culture. Immunofluorescence (MicroTrack Chlamydia trachomatis Direct Specimen Test) was conducted to determine the significance of the chlamydial cytoplasmatic inclusions (CPI). A CylaMonoScreen was conducted to obtain the chlamydia antigens. The monolayer state and the number of cells with CPI were compared to the control to determine the effects the claimed compounds have on the chlamydia. The number of unchanged cells in 100 visual fields were counted utilizing a special net on a microscopic eyepiece.

[4] = tested on: Human Immunodeficiency Virus Type 1; experiment: Anti-HIV activity: protection of MT4 T-lymphoblastoid cells (IFA)
Description: (§1) Activity against the Human immunodeficiency Virus (HIV) was also determined and, more specifically, the compounds antiviral effectiveness in protecting the T-lymphoblastoid cells MT4 from being infected by the virus-containing liquid of HTHIV27 cultures. The cells infected by the virus were analyzed according to the following methods: (1) An indirect immunofluorescence (IFA) with a polyclonal anti-serum was received from an HIV Infected human (the antibody titer in the IFA was 1:1000000) and, (2) A competitive IFA was utilized with monoclonal antibodies (MonAb) to p24 HIV and a polyclonal substrate. A solution of 1:540 was used in the tests. Azidothymidin (AZT) was used as the control.
The results documented in the table shown in TABLE 6 evidence that the compounds tested inhibit the reproduction of the Human Immunodeficiency Virus Type 1.

[5] = tested on: Herpes virus of type I; experiment: Protection of Vero cells from Herpes virus of type I; conditions: for Number of cells: number of cells in 100 fields
[6] = tested on: Human Immunodeficiency Virus; experiment: Anti-HIV activity alone and in combination with azidothymidin in MT4 cells
Description: as §1, with “[…] The methods utilized to analyze the compounds effectiveness were the same” for “Azidothymidin (AZT) was used”, “foregoing methods.” for “control.”

[7] = Influenza virus B, 72 hours at 33-34 C, ineffective when IN less than 1.0
[8] = Influenza virus A, 48 hours at 33-34 C, ineffective when IN less than 1.0

Compound	Index of neutralization [1, 7]	Index of neutralization [2, 8]	Percentage of cells' defense from C. trachomatis ([3]; compound 30 mg/l) [%]	Percentage of cells' defense from C. trachomatis ([3]; compound 100 mg/l) [%]	Level of inhibition of virus reproduction ([4]; 5 mg/l) [%]	Level of inhibition of virus reproduction ([4]; 50 mg/l) [%]	Level of inhibition of virus reproduction ([4]; 100 mg/l) [%]	percentage of protection of cells from virus ([5]; compound 10 mg/l) [%]	percentage of protection of cells from virus ([5]; compound 50 mg/l) [%]	percentage of protection of cells from virus ([5]; compound 100 mg/l) [%]	Number of cells ([5]; compound 10 mg/l)	Number of cells ([5]; compound 50 mg/l)	Number of cells ([5]; compound 100 mg/l)	also measured
Nc1nc(=S)[nH]c2c1C(c1ccc([N+](=O)[O-])cc1)c1c(O)nc(=S)[nH]c1O2 (stereo not drawn) [III, 4-amino-6-hydroxi-5-(4-nitrophenyl)-5,9-dihydro-1H-pyrano[2,3-d: 6,5-d′]dipyrimidine-2,8-dition]	1.0	0.5	70	100	70	90	100	70	80	100	8400	9600	12000	
O=[N+]([O-])c1ccc(C2c3c(O)nc(=S)[nH]c3Oc3[nH]c(=S)nc(Cl)c32)cc1 (stereo not drawn) [Ib, 4-chlorine-6-hydroxi-5-(4-nitrophenyl)-5,9-dihydro-1H-pyrano[2,3-d: 6,5-d′]dipyrimidine-2,8-dition]	0.5	0.5	60	80										inhibition at 5 µg/mL ([4]; Human immunodeficiency virus 1, 5 mg/l, read-out: Level of inhibition of virus reproduction): 70%; inhibition at 50 µg/mL ([4]; Human immunodeficiency virus 1, 50 mg/l, read-out: Level of inhibition of virus reproduction): 90%; inhibition at 100 µg/mL ([4]; Human immunodeficiency virus 1, 100 mg/l, read-out: Level of inhibition of virus reproduction): 100%; inhibition at 0.5 µg/mL ([6]; Human immunodeficiency virus 1, 0.5 mg/l, read-out: Level of inhibition of virus reproduction): 20%; inhibition at 5 µg/mL ([6]; Human immunodeficiency virus 1, 5.0 mg/l, read-out: Level of inhibition of virus reproduction): 70%
Cc1cn([C@H]2C[C@H](N=[N+]=[N-])[C@@H](CO)O2)c(=O)[nH]c1=O [AZT, Azidothymidin, reference compound]					100	100	100							Level of inhibition of virus reproduction ([6]; 0.05 mg/l): 50%; Level of inhibition of virus reproduction ([6]; 5.0 mg/l): 100%
Nc1nc(=S)[nH]c2c1C(c1ccc([N+](=O)[O-])cc1)c1c(N)nc(=S)[nH]c1O2 [V, 4,6-diamino-5-(4-nytrophenyl)-5,9-dihydro-1H-pyrano[2,3-d: 6,5-d′]dipyrimidine-2,8-dition]	1.5	1.0	50	80	90	100	100	60	80	90	7200	9600	10800	
CN(C)c1nc(=S)[nH]c2c1C(c1ccc([N+](=O)[O-])cc1)c1c(O)nc(=S)[nH]c1O2 (stereo not drawn) [IX, 4-dimethylamine-6-hydroxi-5-(4-nitrophenyl)-5,9-dihydro-1H-pyrano[2,3-d: 6,5-d′]dipyrimidine-2,8-dition]			50	80				50	70	80	6000	8400	9600	Index of neutralization [1]: 1.5; Index of neutralization [2]: 2.0
O=[N+]([O-])c1ccc(C2c3c(O)nc(=S)[nH]c3Oc3[nH]c(=S)nc(Sc4nc(O)cc(O)n4)c32)cc1 (stereo not drawn) [X, 4-(4,6-dihydroxipirimidine-2sulfanil)-6-hydroxi-5-(4-nytrophenyl)-5,9-dihydro-1H-pyrano [2,3-d: 6,5-d′]dipyrimidine-2,8-dition]	1.0	1.5	60	100				60	80	90	7200	9600	10800	
